Laboratory results published in PMC8285539, “Tetrasubstituted imidazoles as incognito Toll-like receptor 8 a(nta)gonists” (Nature Communications, 2021).
pKd: −log10 of the molar value.

Molecular target: T1, TLR8 (Homo sapiens, UniProt Q9NR97)
T1 sequence (Q9NR97 27-827): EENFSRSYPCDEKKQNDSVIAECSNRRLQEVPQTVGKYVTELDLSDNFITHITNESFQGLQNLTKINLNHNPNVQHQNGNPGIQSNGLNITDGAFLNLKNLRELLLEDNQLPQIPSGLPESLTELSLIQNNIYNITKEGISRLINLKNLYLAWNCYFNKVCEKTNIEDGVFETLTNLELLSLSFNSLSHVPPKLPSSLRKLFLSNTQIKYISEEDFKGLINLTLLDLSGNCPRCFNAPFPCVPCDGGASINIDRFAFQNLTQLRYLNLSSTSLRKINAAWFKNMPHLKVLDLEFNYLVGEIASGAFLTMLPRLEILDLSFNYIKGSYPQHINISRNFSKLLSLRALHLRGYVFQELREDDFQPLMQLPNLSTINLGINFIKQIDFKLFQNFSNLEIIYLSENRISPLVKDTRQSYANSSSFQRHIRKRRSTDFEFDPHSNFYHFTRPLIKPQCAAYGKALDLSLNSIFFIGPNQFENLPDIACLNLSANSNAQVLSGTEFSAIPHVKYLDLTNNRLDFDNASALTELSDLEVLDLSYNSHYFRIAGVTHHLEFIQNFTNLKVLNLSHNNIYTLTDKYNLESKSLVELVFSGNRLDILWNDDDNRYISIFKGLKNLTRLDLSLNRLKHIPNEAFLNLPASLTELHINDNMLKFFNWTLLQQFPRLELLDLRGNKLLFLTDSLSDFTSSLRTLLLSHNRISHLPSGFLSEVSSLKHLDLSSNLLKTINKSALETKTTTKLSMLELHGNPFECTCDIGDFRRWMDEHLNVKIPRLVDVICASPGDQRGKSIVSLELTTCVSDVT
Assay: ITC
Format: binding

O=c1ccn([C@@H]2O[C@H](CO)[C@@H](O)[C@H]2O)c(=O)[nH]1 [uridine]
pKd: 4.92
